Source: patent US20050192279A1, “Pyridazinones as antagonists of alpha4 integrins” (priority 2004, published 2005)

Legend:
[1] = system: eosinophil peroxidase levels in ear punches; assay: PMA-Induced Inflammation in Mouse Ear Skin and Measurement of Eosinophil Peroxidase; type: in vivo, BALB/C mice; settings: total dose 40 mg/kg po bid; ear punches 24 h after PMA
Procedure: Phorbol 12-Myristate 13-Acetate (PMA)-Induced Inflammation in Mouse Ear Skin and Measurement of Eosinophil Peroxidase
Phorbol 12-myristate 13-acetate (PMA) when applied to skin, generates a vigorous recruitment of immune cells to the site of application. Over a 24 hour period, there is accumulation of fluid and cells to the inflamed site, and thus is a general indicator of an inflammatory response. Among the recruited cells are eosinophils and neutrophils. Eosinophils can migrate into an inflamed or infected tissue via alpha 4 beta 1 integrin interactions with vascular cell adesion molecule-1 (VCAM-1) counter-receptors on vascular endothelial cells, and via alpha 4 beta 7 integrin to mucosal addressin cellular adhesion molecule on vascular endothelial cells in the gastrointestinal tract and mesenteric system. The recruited esoinophils can be quantified by measuring the presence of eosinophil peroxidase in a sample of the homogenized tissue.
Female BALB/C mice are ordered at 6 weeks of age and 16-18 grams from Charles River were used between 6-10 weeks of age. The animals were randomly assigned to groups of 10 (5/box) and housed in groups in plastic cages in a room with 12 h light-dark cycle and controlled temperature and humidity. They received food and water ad libitum.
Phorbol 12-myristate 13-acetate (PMA) was dissolved as 5 mg per mL stock in dimethyl sulfoxide (DMSO) and stored frozen as 20 microliter aliquots. For application to mouse ears, each aliquot was diluted in 2 mL with acetone.
The right ear of each mouse was treated topically with 20 microliters of acetone solution (10 microliters to each side of the ear) containing either 1 microgram of phorbol 12-myristate 13-acetate (PMA) or acetone alone.
Drugs that were tested orally were administered at −1 and +3 hours relative to PMA application.
Mice were sacrificed 24 h after PMA application. The right ear was punched with a 6 mm tissue punch and the tissue was placed in a tube on dry ice and kept frozen until extraction.
One tablet of phosphate citrate buffer was dissolved with urea hydrogen peroxide in 100 ml of water in which one tablet containing 60 mg of o-phenylenediaminedihydrochloride was added.
Ear tissue samples were homogenized in 2 ml of HTAB for 15 sec at speed 5.5 with a Polytron (large head) (Brinkman Instruments). The homogenate was stored at −20° C. until assayed. […]
Samples were typically tested at either a 1:2 or 1:4 dilution made with HTAB. […] Absorbance was read at 490 nm for the specific with subtraction of a 650 nm noise signal using a Thermomax 96-well spectrophotmetric plate reader (Molecular Devices). […]
The inhibition of PMA-induced ear edema was measured by eosinophil peroxidase levels in ear punches. […]

[2] = system: circulating leukocytes; assay: In Vivo Model for Leukocytosis; parameters: species or system Balb/c mice; settings: bled 1-1.5 h after administration
Text: In Vivo Model for Leukocytosis
Leukocytosis is the increase in circulating white blood cells (leukocytes). This can be brought about by preventing leukocyte binding to counter-receptor adhesion molecules expressed on high endothelial venules. This cell adhesion occurs between immunoglobulin superfamily molecules and integrins. Relevant examples of these paired interactions include […] Adhesion Molecule-1 and AlphaL Beta2 integrin, Vascular Cell Adhesion Molecule-1 and α4β1 integrin, and Mucosal Addressin Cell Adhesion Molecule-1 and α4β7 integrin, respectively.
In this model, a compound that antagonizes these leukocyte-endothelial interactions will cause an increase in circulating leukocytes, defined as leukocytosis, as measured at 1-1.5 h post-administration. This leukocytosis is indicative that normal lymphocyte or leukocyte emigration from the peripheral circulation was prevented. Similar emigration of cells out of the circulation into inflamed tissues is responsible for the progression and maintainance of the inflammatory state. Leukocytosis is an indication that lymphocyte and leukocyte extravasation is prevented, and is predictive of general anti-inflammatory activity.
One week prior to being tested, 7-10 week old female Balb/c mice, n=8 per group, were bled and randomized according to leukocyte counts. One week later, the mice were adminstered test compound orally or subcutaneously and then bled 1-1.5 h after drug administration, approximately 1 h after the peak blood concentration of the compound occurred. Whole blood, 250-350 microliters, was collected from each mouse into potassium-EDTA serum collection tubes (Becton-Dickenson) and mixed to prevent clotting.
Cell counts and differential counts on the whole blood preparation were performed using an Advia 120 Hematology System (Bayer Diagnostics). Cell counts as total leukocytes and as total lympohcytes were made and compared to counts made from mice dosed with vehicle only. Data were reported as percent of vehicle control for lymphocyte counts and total leukocyte counts.
Statistical analyses were performed using ANOVA with Dunnet's multiple comparison test.

| Structure (SMILES) | % Inh. of Eosinophil Peroxidase [1] | Lymphoycte Counts % of Vehicle Control ([2]; 3 mg/kg sc) | Total Leukocyte Count % of Vehicle Control ([2]; 3 mg/kg sc) | Lymphoycte Counts % of Vehicle Control ([2]; 10 mg/kg sc) | Total Leukocyte Count % of Vehicle Control ([2]; 10 mg/kg sc) | Lymphoycte Counts % of Vehicle Control ([2]; 30 mg/kg sc) | Total Leukocyte Count % of Vehicle Control ([2]; 30 mg/kg sc) |
| --- | --- | --- | --- | --- | --- | --- | --- |
| COc1cnn(C)c(=O)c1-c1ccc(C[C@H](NC(=O)c2c(Cl)cccc2Cl)C(=O)O)cc1 [Cpd 17] | 34.9% | 145.3% | 143.3% | 191.7% | 198.7% | 220.2% | 264.5% |
| COc1cnn(C)c(=O)c1-c1ccc(C[C@H](NC(=O)[C@@H]2C3CCC(CC3)N2C(=O)CCc2ccccc2)C(=O)O)cc1 [Cpd 89, 3-[4-(5-Methoxy-2-methyl-3-oxo-2,3-dihydro-pyridazin-4-yl)-phenyl]-2(S)-{[2-(3-phenyl-propionyl)-2-aza-bicyclo[2.2.2]octane-3(S)-carbonyl]-amino}-propionic acid] | 43.5% | – | – | – | – | – | – |
| COc1cnn(CCO)c(=O)c1-c1ccc(C[C@H](NC(=O)OC(C)(C)C)C(=O)O)cc1 [Cpd 120] | – | 104.3% | 91.8% | 112.8% | 101.7% | 80.0% | 78.0% |
| COC(=O)[C@H](Cc1ccc(-c2c(OC)cnn(C)c2=O)cc1)NC(=O)c1c(Cl)cccc1Cl [Cpd 151] | 26.5% | – | – | – | – | – | – |
